Assay [1] deals with patient with corneal Herpes zoster. Description: Treatment of herpetic keratitis. The assay is classed as in vivo, human. The note with it: for intraocular pressure: ganciclovir gel plus progesterone to forehead. An excerpt:
A person suffered a first onset of active corneal Herpes zoster. They presented with classic Herpes Zoster symptoms including, left hemisphere unilateral skin lesions on forehead, bridge of nose area and down the nose not including the tip; left cornea dendrites, keratitis and edema; loss of functional vision, elevated intraocular pressure as high as 42 mm Hg, conjunctival irritation and redness and anesthetic cornea. There were also general body flu symptoms.
The patient was initially treated with ophthalmic prednisolone acetate 1% up to 5 times daily, ophthalmic antibiotics, non-prescription ophthalmic wetting agents, and lubrication with gels administered to the eye. Additional drug therapies included systemic oral valcyclovir as high as 2 g per day and medications to reduce intraocular pressure.
Despite the therapy, symptom flare-up was as frequent as 2 weeks to 1 month over the past 10 years. Although intraocular pressure returned to within the normal range, cataracts formed as a result of long term use of corticosteroids.
The cornea surface contour became increasingly distorted with prominent ridges. There was incursion of capillaries across the conjunctiva into the cornea, both superficially and deep. Deposition of phospholipids through a leaching process occluded the cornea with grey color deposits on about 50% of its surface.
Corneal thinning had progressed to near perforation levels which required preparation for corneal patch surgery.
At this point, 1% topical progesterone (approximately 1 mg of progesterone) was first administered as a method to keep the cornea from perforating and the tear film intact. The drug was applied to the forehead 4 times daily together with topical antibiotics and corticosteroids.
After stabilizing the cornea, antiviral treatment was begun with ganciclovir gel (0.15%; 0.15 mg of drug) applied five times daily to the forehead together with once daily progesterone (1%; 1 mg of drug) and a nightly drop of ophthalmic antibiotic. Intraocular pressure measured at the onset of ganciclovir treatment was 18 mm Hg.
The patient reported a decrease in eye strain as a result of an improvement in tear film. […] Over the next two weeks, inflammation was further reduced and visual acuity increased somewhat when the head was tilted back. During the first full month of treatment, the affected eye generally felt comfortable. There was a lack of inflammation, and some vision returned to the threshold of functionality. Intraocular pressure remained normal in the range of 16 mm Hg.
There was modest improvement in reading the eye chart, and corneal staining due to defects was minimized. Intraocular pressure remained normal in both eyes at about 16 mm Hg during this period. The phospholipid deposits further reduced in density and began to give the appearance of lesser areas of concentrations. Nearly functional vision could be achieved by positioning the head back and viewing through the central cornea. The residual clear area of the cornea became more so and less inflamed. Through the end of the second month, improvement to the cornea accelerated. The pupil was now clearly visible and more light was entering the eye.
The patient was examined regularly by an ophthalmologist, and after three and one half months of treatment. The intraocular pressure was normal at 12 mm Hg. […] Intraocular pressure has remained in the same range for more than one year.

Assay [2] has the same test system. Description: Treatment of herpetic keratitis. It counts as in vivo, human. To be noted: one year, 1 mg progesterone to forehead 2 or 3 times a day, no other drugs.
Assay [3] deals with patients with ocular discomfort resulting from dry eye. Kind of assay: Treatment of dry eye with topical progesterone applied cranially. It counts as in vivo, human. As for the experimental part: Twenty-seven patients diagnosed with ocular discomfort resulting from dry eye were treated with topical progesterone (0.5%-1% by weight, corresponding to approximately 1-4 mg progesterone per application) applied to the forehead either once or twice per day.
A summary of clinical results is shown below in Table 2.

Assay [4] deals with post-surgical patients on glaucoma medication. Kind of assay: Treatment of ocular discomfort and redness in post-surgical patients and patients on glaucoma medication. The assay is classed as in vivo, human. The note with it: 1% progesterone to forehead, three times daily or 2-3 times then once a day. An excerpt: A […] […] had four eye surgeries and was being treated with two glaucoma eye drops (dorzolamide-timolol combination and travaprost) together with a lubricating eye gel twice a day.
A […] […] had multiple surgeries and was diagnosed with Fuch's corneal dystrophy and narrow angle glaucoma. Prior to the latest surgery, when they were almost legally blind, they started applying to their forehead 1% progesterone 2-3 times a day, then reduced the application frequency to once a day.

Assay [5] concerns dogs with mucus discharge from the eyes. Description: Treatment of dry eye in domestic animals. The assay is classed as in vivo, dog. An excerpt: A puggle presented with mucus discharge from the eyes. […] The owner reported that the dog has this problem spring and fall, which indicates it is allergic seasonal rhinitis. The reported use took place in the fall.
A bulldog diagnosed with Sjogren's syndrome had mucus discharge from the eyes.

In assay [6] the test system is females with wrist fracture pain or wrist arthritis. Description: Treatment of pain. The assay is classed as in vivo, human. The note with it: person. The source says:
A person suffered a wrist fracture of the left distal radius and ulnar styloid, with subsequent severe pain.
A person was diagnosed 10 years ago with arthritis in their right wrist, with pain, weakness, and limited motion in the hand and wrist. […] The condition has worsened since they were first diagnosed. The individual is being treated with regular steroid injections. […] They are able to twist open tightly closed containers. Additionally, bone snapping sounds and feelings are no longer present.

The subject of assay [7] is male and female with cyclosporine-induced eye irritation. Description: Treatment of drug-induced eye irritation. The note with it: 1% progesterone to forehead after cleaning off drug residual; within two minutes. The assay is classed as in vivo, human. The source says: Ten minutes later, drug residual was cleaned off from the forehead, and 1% progesterone was applied.

In assay [8] the test system is patients with ocular discomfort resulting from dry eye. Description: Treatment of dry eye with topical progesterone applied cranially. It counts as in vivo, human. The source holds these as a separate data set.

“Also recorded” adds a separate entry of the source. Some results are limits rather than exact numbers.

Turning to `CC(=O)[C@H]1CC[C@H]2[C@@H]3CCC4=CC(=O)CC[C@]4(C)[C@H]3CC[C@]12C` [progesterone], in assay [1] (1% progesterone (about 1 mg) to forehead 4 times daily together with topical antibiotics and corticosteroids), the corneal deterioration entry is reported as “Further corneal deterioration was halted”. Also, in assay [1] (ganciclovir gel 0.15% (0.15 mg) five times daily plus progesterone 1% (1 mg) once daily to forehead, nightly ophthalmic antibiotic, 1 week to 3.5 months), the “inflammation, visual acuity and state of affected eye” value was “less inflammation and a slight improvement in visual acuity; also recorded: some functional vision was attained; also recorded: stable and normalizing”. Also, the intraocular pressure in assay [1] (after three and one half months) was 12 mm Hg; in assay [1] (both eyes, examination period up to third month), “about 16 mm Hg”; in assay [1] (first full month of treatment) it was approximately 16 mm Hg. Further, the corneal perforation result in assay [2] is reported as “the cornea remained unperforated”. The Results entry was “After prolonged use, no longer requires; also recorded: Eyes moist and tearing minutes after; also recorded: application. Stopped all auxiliary eye” in assay [3] (0.5-1% on the forehead, once daily); “Equally effective. Uses nightly once a day” in assay [3] (1% progesterone ON); “Stopped using lubricating drops. Redness,; also recorded: itching and scaly eyelids disappeared” in assay [8] (1% progesterone TID). Besides, in assay [3] (progesterone 0.5%-1% (about 1-4 mg per application) to forehead once or twice per day), the “overall clinical result in twenty-seven dry eye patients” value is given as “Improvement was seen in all cases; also recorded: Most patients were able to discontinue previous therapy”. Moreover, in assay [3] (subject 4, 1% progesterone), the “time until moisture felt” value is “moisture felt after 10 minutes; after weeks”. Further, in assay [4], the “ocular discomfort, redness and need for lubricating drops” value was “able to stop using the lubricating drops; also recorded: Redness also disappeared; also recorded: helped to ease irritation, lid sticking and redness”. In assay [5] (progesterone to the dog's forehead (puggle; bulldog with Sjogren's syndrome)), the “time to effect on mucus discharge from the eyes” value is not above 24 h. Besides, the “mucus discharge from the eyes” value in assay [5] (progesterone topical forehead treatment, daily) is recorded as “the problem no longer recurred; also recorded: cessation of mucus discharge”. In assay [6] (arthritis, five days after applying 1% progesterone to forehead), the “wrist pain, mobility and strength” value is “significantly less wrist pain and increased mobility and strength”. Also, in assay [6] (wrist fracture, approximately 4 mg progesterone to forehead), the “time to significant decrease in pain” value is not above 15 min. Further, in assay [7], the “relief of cyclosporine-induced irritation and stinging” value was “irritation and stinging began to dissipate”. The TBUT entry in assay [8] (subject 18, 1% progesterone 2-3 times/day, increased from 2) was “TBUT increased from 2 to 8. Long term”.

The values above are taken from patent US10251835B2, “Cranial delivery of pharmaceuticals” (GLIA, LLC, priority 2013, dated 2019).
